According to article PMC9386204, “Design, synthesis, and in silico studies of quinoline-based-benzo[d]imidazole bearing different acetamide derivatives as potent α-glucosidase inhibitors” (Scientific Reports, 2022):

Experiments:
[1] = Concentrations of precipitation; type: physicochemical
Source text: Table 1 α-Glucosidase inhibitory activity of compounds 9a–r. | column: Concentrations of precipitation (µM)

[2] = molecular target: T1, α-glucosidase (Saccharomyces cerevisiae, UniProt P53341); experiment: α-Glucosidase inhibitory assay; conditions: for IC50: α-glucosidase inhibition, mean ± SD
T1 sequence (P53341 whole entry): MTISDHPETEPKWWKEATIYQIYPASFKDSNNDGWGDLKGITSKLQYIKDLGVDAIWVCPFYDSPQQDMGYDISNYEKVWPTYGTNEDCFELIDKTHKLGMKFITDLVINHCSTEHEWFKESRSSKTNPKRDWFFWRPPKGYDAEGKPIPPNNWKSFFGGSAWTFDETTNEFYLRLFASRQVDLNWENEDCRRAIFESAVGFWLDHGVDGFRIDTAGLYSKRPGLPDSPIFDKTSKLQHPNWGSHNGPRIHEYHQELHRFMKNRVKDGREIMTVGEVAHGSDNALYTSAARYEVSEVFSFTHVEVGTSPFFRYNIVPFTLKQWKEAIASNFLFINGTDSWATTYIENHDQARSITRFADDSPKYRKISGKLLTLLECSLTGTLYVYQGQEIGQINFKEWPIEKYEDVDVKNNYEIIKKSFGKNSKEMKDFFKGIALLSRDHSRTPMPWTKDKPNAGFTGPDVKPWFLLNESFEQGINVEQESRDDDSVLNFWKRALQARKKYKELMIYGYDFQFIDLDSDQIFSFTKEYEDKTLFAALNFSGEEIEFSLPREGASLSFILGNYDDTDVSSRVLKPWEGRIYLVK
Method: The α-glucosidase inhibitory activities of all synthesized derivatives were assayed according to the previously reported procedure[9],[36].

[3] = molecular target: T1, α-glucosidase; experiment: Enzyme kinetic studies (Lineweaver–Burk plot, secondary plot); type: biochemical; conditions: Km increased, Vmax unchanged
Method: A Lineweaver–Burk plot was generated to identify the type of inhibition and the Michaelis–Menten constant (Km) value was determined from the plot between reciprocal of the substrate concentration (1/[S]) and reciprocal of enzyme rate (1/V) over various inhibitor concentrations. The experimental inhibitor constant (Ki) value was constructed by secondary plots of the inhibitor concentration [I] versus Km[6].

| Compound | Concentrations of precipitation [1] | IC50 [2] | melting point | fold loss of potency compared to 9a ([2]; versus 9a) | type of inhibition [3] |
| --- | --- | --- | --- | --- | --- |
| 2-((3-(1H-benzo[d]imidazol-2-yl)naphthalen-2-yl)thio)-N-(4-fluorophenyl)acetamide [Compound 9c] | ≥ 200 µM | 13.5 ± 0.6 µM |  |  |  |
| O=C(CSc1nc2ccccc2cc1-c1nc2ccccc2[nH]1)Nc1ccccc1 [Compound 9a, 2-((3-(1H-benzo[d]imidazol-2-yl)quinolin-2-yl)thio)-N-phenylacetamide] | ≥ 200 µM |  |  |  |  |
| O=C(CSc1nc2ccccc2cc1-c1nc2ccccc2[nH]1)Nc1ccccc1F [Compound 9b, 2-((3-(1H-benzo[d]imidazol-2-yl)quinolin-2-yl)thio)-N-(2-fluorophenyl)acetamide] | ≥ 200 µM |  | 183 to 185 °C | around the twofold loss of potency |  |
| O=C(CSc1nc2ccccc2cc1-c1nc2ccccc2[nH]1)Nc1cccc(Cl)c1 [Compound 9d, 2-((3-(1H-benzo[d]imidazol-2-yl)quinolin-2-yl)thio)-N-(3-chlorophenyl)acetamide] | ≥ 200 µM |  | 190 to 192 °C |  | competitive inhibition |
| O=C(CSc1nc2ccccc2cc1-c1nc2ccccc2[nH]1)Nc1ccc(Cl)cc1 [Compound 9e, 2-((3-(1H-benzo[d]imidazol-2-yl)quinolin-2-yl)thio)-N-(4-chlorophenyl)acetamide] | ≥ 200 µM |  | 185 to 187 °C |  |  |
| O=C(CSc1nc2ccccc2cc1-c1nc2ccccc2[nH]1)Nc1ccccc1Br [Compound 9f, 2-((3-(1H-benzo[d]imidazol-2-yl)quinolin-2-yl)thio)-N-(2-bromophenyl)acetamide] | ≥ 200 µM |  | 181 to 183 °C |  |  |
| O=C(CSc1nc2ccccc2cc1-c1nc2ccccc2[nH]1)Nc1ccc(Br)cc1 [Compound 9g, 2-((3-(1H-benzo[d]imidazol-2-yl)quinolin-2-yl)thio)-N-(4-bromophenyl)acetamide] | ≥ 200 µM |  | 185 to 187 °C |  |  |
| O=C(CSc1nc2ccccc2cc1-c1nc2ccccc2[nH]1)Nc1c(Cl)cccc1Cl [Compound 9h, 2-((3-(1H-benzo[d]imidazol-2-yl)quinolin-2-yl)thio)-N-(2,6-dichlorophenyl)acetamide] | ≥ 200 µM |  | 188 to 190 °C |  |  |
| O=C(CSc1nc2ccccc2cc1-c1nc2ccccc2[nH]1)Nc1ccc([N+](=O)[O-])cc1 [Compound 9i, 2-((3-(1H-benzo[d]imidazol-2-yl)quinolin-2-yl)thio)-N-(4-nitrophenyl)acetamide] | ≥ 200 µM |  | 180 to 182 °C |  |  |
| Cc1ccccc1NC(=O)CSc1nc2ccccc2cc1-c1nc2ccccc2[nH]1 [Compound 9j] | ≥ 200 µM |  |  |  |  |
| Cc1ccc(NC(=O)CSc2nc3ccccc3cc2-c2nc3ccccc3[nH]2)cc1 [Compound 9k] | ≥ 200 µM |  | 181 to 183 °C |  |  |
| COc1ccc(NC(=O)CSc2nc3ccccc3cc2-c2nc3ccccc3[nH]2)cc1 [Compound 9l, 2-((3-(1H-benzo[d]imidazol-2-yl)quinolin-2-yl)thio)-N-(4-methoxyphenyl)acetamide] | ≥ 200 µM |  | 191 to 193 °C |  |  |
| CCc1ccc(NC(=O)CSc2nc3ccccc3cc2-c2nc3ccccc3[nH]2)cc1 [Compound 9m, 2-((3-(1H-benzo[d]imidazol-2-yl)quinolin-2-yl)thio)-N-(4-ethylphenyl)acetamide] | ≥ 200 µM |  | 178 to 180 °C |  |  |
| Cc1cccc(NC(=O)CSc2nc3ccccc3cc2-c2nc3ccccc3[nH]2)c1C [Compound 9n, 2-((3-(1H-benzo[d]imidazol-2-yl)quinolin-2-yl)thio)-N-(2,3-dimethylphenyl)acetamide] | ≥ 200 µM |  | 185 to 187 °C |  |  |
| Cc1cccc(C)c1NC(=O)CSc1nc2ccccc2cc1-c1nc2ccccc2[nH]1 [Compound 9o, 2-((3-(1H-benzo[d]imidazol-2-yl)quinolin-2-yl)thio)-N-(2,6-dimethylphenyl)acetamide] | ≥ 200 µM |  | 185 to 187 °C |  |  |
| O=C(CSc1nc2ccccc2cc1-c1nc2ccccc2[nH]1)Nc1ccc2ccccc2c1 [Compound 9p, 2-((3-(1H-benzo[d]imidazol-2-yl)quinolin-2-yl)thio)-N-(naphthalen-2-yl)acetamide] | ≥ 200 µM | 17.7 ± 0.8 µM |  |  |  |
| O=C(CSc1nc2ccccc2cc1-c1nc2ccccc2[nH]1)NCc1ccccc1 [Compound 9q, 2-((3-(1H-benzo[d]imidazol-2-yl)quinolin-2-yl)thio)-N-benzylacetamide] | ≥ 200 µM |  | 183 to 185 °C |  |  |
| O=C(CSc1nc2ccccc2cc1-c1nc2ccccc2[nH]1)NCc1ccc(F)cc1 [Compound 9r, 2-((3-(1H-benzo[d]imidazol-2-yl)quinolin-2-yl)thio)-N-(4-fluorobenzyl)acetamide] | ≥ 200 µM |  | 186 to 188 °C |  |  |
